# From publication PMC7213079, “Hit Identification of New Potent PqsR Antagonists as Inhibitors of Quorum Sensing in Planktonic and Biofilm Grown Pseudomonas aeruginosa” (Frontiers in Chemistry, 2020)
# “Also recorded” adds a separate entry of the source.
# Assays:
# Type in all cases: cell-based, Pseudomonas aeruginosa
# [1] = system: PAO1-L; test: Pyocyanin quantification, PAO1-L; details: compound at 3 x IC50, 16 h, compared with the control
# Source text: Pyocyanin is an important virulence factor for P. aeruginosa infections and in particular respiratory and urinary tract infections. Pyocyanin is a redox-active phenazine the production of which is regulated via PqsR and PqsE (Hall et al., [2016]; Rampioni et al., [2016]; Higgins et al., [2018]). Therefore, pyocyanin production serves as an indirect readout of the activity of the pqs QS system. […] Compound 40 reduced pyocyanin production by over 80% in both strains in agreement with bioreporter assay results.
# Figure 4 Pyocyanin production by Pseudomonas aeruginosa after treatment with pqs inhibitors 8, 14, 23, 34, 25, 26, and 40. Quantification of pyocyanin production after inhibitor treatment at 3 × IC50 for both PAO1-L and PA14. The graph represents the average of three independent experiments carried out in triplicate (n = 9).
# PAO1-L Wild type PAO1, Lausanne subline. B.
# PAO1-L mCTX::PpqsA- PAO1-L with chromosomal mini-CTX::PpqsA-lux (Soukarieh lux insertion; TcR et al., 2018)
# PA14 Wild type UCBPP-PA14 (Rahme et
# PA14 mCTX::PpqsA-lux PA14 with chromosomal mini-CTX::PpqsA-lux (Soukarieh insertion; TcR et al., 2018) […]
# Pyocyanin quantification: […]
# Pyocyanin pigment was extracted into chloroform by mixing 7.5 mL of supernatant with 4.5 mL of chloroform. Pyocyanin w as further extracted into 1.5 mL of 0.2 M HCL which gave a pink/red solution and the absorbance was measured at 520 nm.
# [2] = system: PAO1-L biofilm cultures; test: AQ quantification in biofilm cultures; details: M9 minimal medium, 10 μM, 18 h, versus DMSO control
# Source text: Biofilms are a major challenge in the treatment of chronic P. aeruginosa infections because of their resilience and protection of bacteria from environmental stresses such as those posed by the host immune system and antimicrobial agents (Flemming et al., [2007]; Rybtke et al., [2015]). Many genes that are involved in biofilm formation are directly linked to pqs QS signaling (Rampioni et al., [2016]; Lin et al., [2018]). To evaluate the effect of 40 on AQ signaling in biofilm cultures, PAO1-L was grown in M9 minimal medium and challenged with either DMSO control or of 40 (10 μM). Following incubation and cell removal, supernatants were subjected to LC/MS-MS analysis.
# Figure 6 Quantification of AQ concentrations in PAO1-L biofilm cultures treated with 40 (10 μM). […] Biofilms were grown in M9 minimal medium for 18 h in 24-well glass bottom plates and supernatants extracted for AQ analysis. […]
# screening of the LC eluent for specific AQ analytes. Where chromatographic peaks for HHQ and PQS were detected, a peak area was determined and analyte peak area/internal standard peak area calculated.
# AQ quantification in biofilm cultures: […]
# For this experiment, the P. aeruginosa PAO1-L strain and M9 minimal medi um were used. […] The supernatant was col lected and the AQ extraction and quantification were performed following the LC MS/MS protocol described above . […]
# [3] = system: PAO1-L biofilms; test: Biofilm viability assay (LIVE/DEAD BacLight, CLSM); details: 6 and 24 h
# Procedure: PAO1-L biofilms were established for 2 days before challenging with these treatments for 6 and 24 h followed by Live/Dead staining.
# Figure 7 Bar chart showing PAO1-L biofilm viability quantified after treatment with different conditions for 6 or 24 h.
# Mature pre-established P. aeruginosa PAO1-L biofilms were grown to assess the effects of co-
# For these assays, PAO1-L biofilms were grown on round glass coverslips (8 mm, #1.5 thickness) under flow conditions (20 rpm) in FAB containing 10
# mM glucose medium inoculated with a diluted (OD600nm = 0.01) bacterial suspension from overnight
# cultures in LB. Biofilms were cultivated at 30°C for 2 days with medium replacement every day.
smiles,measurement,setting,value
"Cn1c2ccccc2c2nnc(SCC(=O)Nc3ccc(Oc4ccccn4)cc3)nc21 [Compound 40, 2-((5-Methyl-5H-[1,2,4]triazino[5,6-b]indol-3-yl)thio)-N-(4-(pyridin-2-yloxy)phenyl)acetamide]",inhibition of pyocyanin production,[1],over 80%
same,biosynthesis of AQ signals in biofilm cultures,[2],effectively inhibit; also recorded: drastically reduced
same,biofilm viability,"[3]; pre-established PAO1-L biofilms (48 h), 40 at 10 μM",growth of the community increased; also recorded: slight increase in viability
same,biofilm killing in combination with CIP,"[3]; pre-established PAO1-L biofilms, 40 10 μM combined with ciprofloxacin 60 μg/mL",did not result in an enhanced biofilm killing
